{"source": "ChEMBL document CHEMBL3352173", "about": "“Optimization of pyrrolamide topoisomerase II inhibitors toward identification of an antibacterial clinical candidate (AZD5099)” (J Med Chem, 2014)", "key": {"Staphylococcus aureus [1]": {"test_system": "Staphylococcus aureus", "test": "Antibacterial activity against methicillin-sensitive Staphylococcus aureus ARC516 infected in neutropenic CD1 mouse thigh model assessed as decrease in bacterial viable counts at 30 mg/kg, ip after 24 hrs", "assay_type": "functional", "settings": "route intraperitoneal; call rule not given here"}, "Staphylococcus aureus [2]": {"test_system": "Staphylococcus aureus", "test": "Antibacterial activity against methicillin-sensitive Staphylococcus aureus ARC516 infected in neutropenic CD1 mouse thigh model assessed as decrease in bacterial viable counts at 30 mg/kg, ip q24", "assay_type": "functional", "settings": "route intraperitoneal"}, "[3]": {"test": "AUC in methicillin-sensitive Staphylococcus aureus ARC516 infected in neutropenic CD1 mouse thigh model at 30 mg/kg, ip q24", "assay_type": "ADME, organism-based", "set-up": "dose 30 mg/kg, route intraperitoneal", "settings": "in vivo"}, "Mus musculus": {"test_system": "Mus musculus", "test": "fAUC in methicillin-sensitive Staphylococcus aureus ARC516 infected in neutropenic CD1 mouse thigh model at 30 mg/kg, ip q24", "assay_type": "ADME, organism-based", "set-up": "dose 30 mg/kg, route intraperitoneal", "settings": "in vivo"}, "Staphylococcus aureus [4]": {"test_system": "Staphylococcus aureus", "test": "Antibacterial activity against methicillin-sensitive Staphylococcus aureus ARC516 infected in ip dosed neutropenic CD1 mouse thigh model assessed as decrease in bacterial viable counts treated for q24", "assay_type": "functional", "settings": "ARC516, Thigh muscle"}, "Haemophilus influenzae [5]": {"test_system": "Haemophilus influenzae", "test": "Antimicrobial activity against amoxicillin-resistant Haemophilus influenzae by broth microdilution/CLSI method", "assay_type": "functional"}, "Staphylococcus aureus [6]": {"test_system": "Staphylococcus aureus", "test": "Antimicrobial activity against Staphylococcus aureus ARC516 by broth microdilution/CLSI method", "assay_type": "functional"}, "Staphylococcus aureus [7]": {"test_system": "Staphylococcus aureus", "test": "Antimicrobial activity against 2 times drug resistance selected Staphylococcus aureus ARC516-2F by broth microdilution/CLSI method", "assay_type": "functional"}, "Staphylococcus aureus [8]": {"test_system": "Staphylococcus aureus", "test": "Antimicrobial activity against Staphylococcus aureus ARC1692 by broth microdilution/CLSI method", "assay_type": "functional"}, "Staphylococcus aureus [9]": {"test_system": "Staphylococcus aureus", "test": "Antimicrobial activity against 2 times drug resistance selected Staphylococcus aureus ARC1692-1F by broth microdilution/CLSI method", "assay_type": "functional"}, "Staphylococcus aureus [10]": {"test_system": "Staphylococcus aureus", "test": "Antimicrobial activity against Staphylococcus aureus ARC2381 by broth microdilution/CLSI method", "assay_type": "functional"}, "Staphylococcus aureus [11]": {"test_system": "Staphylococcus aureus", "test": "Antimicrobial activity against 2 times drug resistance selected Staphylococcus aureus ARC2381-3F by broth microdilution/CLSI method", "assay_type": "functional"}, "Staphylococcus aureus [12]": {"test_system": "Staphylococcus aureus", "test": "Ratio of MIC for 2 times drug resistance selected Staphylococcus aureus ARC1692-1F to MIC for Staphylococcus aureus ARC1692", "assay_type": "functional"}, "Staphylococcus aureus [13]": {"test_system": "Staphylococcus aureus", "test": "Ratio of MIC for 2 times drug resistance selected Staphylococcus aureus ARC1692-2F to MIC for Staphylococcus aureus ARC1692", "assay_type": "functional"}, "Staphylococcus aureus [14]": {"test_system": "Staphylococcus aureus", "test": "Ratio of MIC for 2 times drug resistance selected Staphylococcus aureus ARC2381-2F to MIC for Staphylococcus aureus ARC2381", "assay_type": "functional"}, "Staphylococcus aureus [15]": {"test_system": "Staphylococcus aureus", "test": "Ratio of MIC for 2 times drug resistance selected Staphylococcus aureus ARC2398-1F to MIC for Staphylococcus aureus ARC2398", "assay_type": "functional"}, "[16]": {"test": "Selectivity ratio for human topoisomerase 2 alpha to bacterial type 2 topoisomerase"}, "[17]": {"target": "Voltage-gated inwardly rectifying potassium channel KCNH2 (Homo sapiens, UniProt Q12809)", "sequence (Q12809 whole entry)": "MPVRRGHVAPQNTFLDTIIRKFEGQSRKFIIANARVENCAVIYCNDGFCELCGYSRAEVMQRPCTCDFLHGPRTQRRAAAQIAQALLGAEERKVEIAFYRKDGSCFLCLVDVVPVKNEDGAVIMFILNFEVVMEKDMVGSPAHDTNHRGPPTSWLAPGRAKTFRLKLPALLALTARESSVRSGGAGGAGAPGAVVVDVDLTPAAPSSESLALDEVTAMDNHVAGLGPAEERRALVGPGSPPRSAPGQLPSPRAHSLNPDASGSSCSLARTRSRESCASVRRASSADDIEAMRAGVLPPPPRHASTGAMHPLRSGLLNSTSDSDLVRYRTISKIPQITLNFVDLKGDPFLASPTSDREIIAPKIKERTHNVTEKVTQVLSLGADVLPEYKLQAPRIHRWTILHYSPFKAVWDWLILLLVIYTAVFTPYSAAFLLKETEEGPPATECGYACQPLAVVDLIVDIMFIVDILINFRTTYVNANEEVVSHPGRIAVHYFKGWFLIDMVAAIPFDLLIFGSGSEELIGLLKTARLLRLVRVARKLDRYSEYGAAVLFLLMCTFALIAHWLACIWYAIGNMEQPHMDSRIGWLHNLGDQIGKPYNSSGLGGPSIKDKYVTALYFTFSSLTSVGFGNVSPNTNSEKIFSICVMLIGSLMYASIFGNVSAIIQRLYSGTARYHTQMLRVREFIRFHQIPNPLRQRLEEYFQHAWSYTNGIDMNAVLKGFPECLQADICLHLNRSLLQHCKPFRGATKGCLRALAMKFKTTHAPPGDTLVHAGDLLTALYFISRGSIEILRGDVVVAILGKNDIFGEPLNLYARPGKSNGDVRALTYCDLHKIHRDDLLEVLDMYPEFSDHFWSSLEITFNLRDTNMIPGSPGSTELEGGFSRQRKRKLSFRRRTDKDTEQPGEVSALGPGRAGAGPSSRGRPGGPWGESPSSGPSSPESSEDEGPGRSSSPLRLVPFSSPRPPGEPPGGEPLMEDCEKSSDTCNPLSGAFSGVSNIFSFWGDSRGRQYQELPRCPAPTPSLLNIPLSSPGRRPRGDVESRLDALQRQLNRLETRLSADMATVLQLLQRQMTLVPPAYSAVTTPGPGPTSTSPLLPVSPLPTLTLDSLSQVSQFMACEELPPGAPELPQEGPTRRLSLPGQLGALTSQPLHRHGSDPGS", "test": "Inhibition of human ERG at 100 uM"}, "Cytochrome P450 2D6": {"target": "Cytochrome P450 2D6 (Homo sapiens, UniProt P10635)", "sequence (P10635 whole entry)": "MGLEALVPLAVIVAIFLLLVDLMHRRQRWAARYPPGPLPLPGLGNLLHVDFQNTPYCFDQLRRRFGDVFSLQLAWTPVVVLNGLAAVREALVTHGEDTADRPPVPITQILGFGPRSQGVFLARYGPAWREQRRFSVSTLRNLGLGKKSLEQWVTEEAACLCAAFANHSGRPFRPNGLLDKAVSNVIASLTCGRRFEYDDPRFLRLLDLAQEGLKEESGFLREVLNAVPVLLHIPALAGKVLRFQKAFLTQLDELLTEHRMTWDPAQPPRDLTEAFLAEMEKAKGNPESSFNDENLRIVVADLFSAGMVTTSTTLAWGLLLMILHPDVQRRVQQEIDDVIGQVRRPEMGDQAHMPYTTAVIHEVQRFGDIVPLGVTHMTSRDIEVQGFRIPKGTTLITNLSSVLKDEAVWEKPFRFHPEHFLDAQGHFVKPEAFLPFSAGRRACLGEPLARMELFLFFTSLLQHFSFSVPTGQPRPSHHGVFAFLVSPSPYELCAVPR", "test": "Inhibition of human CYP2D6 at 50 uM", "assay_type": "ADME"}, "[18]": {"target": "ATP-binding cassette sub-family C member 2 (Rattus norvegicus, UniProt Q63120)", "sequence (Q63120 whole entry)": "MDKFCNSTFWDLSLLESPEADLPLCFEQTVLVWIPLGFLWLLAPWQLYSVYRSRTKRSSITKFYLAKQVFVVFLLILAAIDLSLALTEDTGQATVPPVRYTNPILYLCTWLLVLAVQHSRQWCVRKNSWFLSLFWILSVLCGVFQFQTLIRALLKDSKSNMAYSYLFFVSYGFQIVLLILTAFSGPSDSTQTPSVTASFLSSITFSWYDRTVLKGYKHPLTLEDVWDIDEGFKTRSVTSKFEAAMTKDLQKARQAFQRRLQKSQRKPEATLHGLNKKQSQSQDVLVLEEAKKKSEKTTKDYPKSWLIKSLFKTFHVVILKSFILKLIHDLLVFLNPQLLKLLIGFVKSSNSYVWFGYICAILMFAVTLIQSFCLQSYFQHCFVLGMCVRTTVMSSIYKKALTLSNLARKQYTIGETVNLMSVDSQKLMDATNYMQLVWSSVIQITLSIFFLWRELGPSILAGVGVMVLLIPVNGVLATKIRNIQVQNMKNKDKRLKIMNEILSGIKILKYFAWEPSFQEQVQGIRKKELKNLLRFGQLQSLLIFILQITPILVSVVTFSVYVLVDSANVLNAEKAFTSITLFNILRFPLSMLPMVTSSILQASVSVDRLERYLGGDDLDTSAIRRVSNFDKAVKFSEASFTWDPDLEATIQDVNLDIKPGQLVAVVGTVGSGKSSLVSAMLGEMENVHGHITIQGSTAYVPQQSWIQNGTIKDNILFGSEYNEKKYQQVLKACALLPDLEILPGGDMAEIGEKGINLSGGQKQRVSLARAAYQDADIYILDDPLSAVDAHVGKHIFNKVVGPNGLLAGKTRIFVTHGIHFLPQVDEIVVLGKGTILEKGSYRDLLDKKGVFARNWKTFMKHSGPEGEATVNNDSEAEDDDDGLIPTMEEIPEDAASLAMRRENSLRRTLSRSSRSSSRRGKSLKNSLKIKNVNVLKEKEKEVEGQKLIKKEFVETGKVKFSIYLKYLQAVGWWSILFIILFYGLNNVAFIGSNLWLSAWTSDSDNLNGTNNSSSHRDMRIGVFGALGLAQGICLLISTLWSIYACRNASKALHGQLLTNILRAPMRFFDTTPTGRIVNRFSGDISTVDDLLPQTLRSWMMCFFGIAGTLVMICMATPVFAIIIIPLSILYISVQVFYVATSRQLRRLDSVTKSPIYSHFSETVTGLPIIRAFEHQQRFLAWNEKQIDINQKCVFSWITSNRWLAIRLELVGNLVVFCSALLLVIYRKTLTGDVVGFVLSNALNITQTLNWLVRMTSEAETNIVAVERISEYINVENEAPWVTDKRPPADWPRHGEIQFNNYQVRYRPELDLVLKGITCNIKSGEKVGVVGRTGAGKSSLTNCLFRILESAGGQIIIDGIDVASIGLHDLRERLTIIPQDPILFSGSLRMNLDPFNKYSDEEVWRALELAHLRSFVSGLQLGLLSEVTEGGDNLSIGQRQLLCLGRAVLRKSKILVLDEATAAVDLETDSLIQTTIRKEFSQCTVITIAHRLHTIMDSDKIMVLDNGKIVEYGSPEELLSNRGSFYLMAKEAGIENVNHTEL", "test": "Stimulation of ATPase activity of rat Mrp2 assessed as inorganic phosphate"}, "Haemophilus influenzae [19]": {"test_system": "Haemophilus influenzae", "test": "Antimicrobial activity against Haemophilus influenzae by broth microdilution/CLSI method", "assay_type": "functional", "settings": "Haemophilus influenzae; read-out: MIC"}, "[20]": {"test": "Clearance in Wistar rat at 10 mg/kg, iv", "assay_type": "ADME, organism-based", "set-up": "dose 10 mg/kg, route intravenous", "settings": "in vivo"}, "Moraxella catarrhalis": {"test_system": "Moraxella catarrhalis", "test": "Antimicrobial activity against Moraxella catarrhalis by broth microdilution/CLSI method", "assay_type": "functional", "settings": "Moraxella catarrhalis; read-out: MIC"}, "Escherichia coli": {"test_system": "Escherichia coli", "test": "Antimicrobial activity against Escherichia coli tolC- by broth microdilution/CLSI method", "assay_type": "functional", "settings": "Escherichia coli; read-out: MIC"}, "[21]": {"test": "Octanol-phosphate buffer distribution coefficient, log D of the compound at pH 7.4 by shake flask method", "assay_type": "physicochemical"}, "[22]": {"test": "Ratio of MIC for methicillin, quinolone-resistant Staphylococcus aureus to fraction unbound in human plasma", "assay_type": "ADME"}, "[23]": {"test": "Percentage unbound in mouse plasma", "assay_type": "ADME, cell-free"}, "[24]": {"test": "Bioavailability in CD1 mouse at 10 mg/kg, […]", "assay_type": "ADME, organism-based", "settings": "in vivo"}, "[25]": {"test": "Percentage unbound in rat plasma", "assay_type": "ADME, cell-free"}, "[26]": {"test": "Percentage unbound in dog plasma", "assay_type": "ADME, cell-free, Canis lupus familiaris"}, "[27]": {"test": "Bioavailability in dog at 10 mg/kg, iv", "assay_type": "ADME, organism-based, Canis lupus familiaris", "settings": "plasma"}, "[28]": {"test": "Clearance in dog at 10 mg/kg, iv", "assay_type": "ADME, organism-based, Canis lupus familiaris", "set-up": "dose 10 mg/kg, route intravenous", "settings": "plasma"}, "[29]": {"test": "Clearance in TR-negative Wistar rat at 10 mg/kg, iv", "assay_type": "ADME, organism-based", "set-up": "dose 10 mg/kg, route intravenous", "settings": "in vivo"}}}
{"smiles": "COC[C@H](C)NC(=O)c1nc(N2CC[C@@H](NC(=O)c3[nH]c(C)c(Cl)c3Cl)[C@@H](OC)C2)sc1C(=O)O", "note": "[AZD-5099]", "values": [{"measurement": "fold change (FC)", "setting": "Staphylococcus aureus [1]", "value": 2}, {"measurement": "deltalog10CFU", "setting": "Staphylococcus aureus [2]", "value": 1.51}, {"measurement": "AUC", "setting": "[3]", "value": 116, "unit": "µg·h/mL"}, {"measurement": "fAUC", "setting": "Mus musculus", "value": 5.45, "unit": "µg·h/mL"}, {"measurement": "MIC", "setting": "Staphylococcus aureus [4]", "value": 0.03, "unit": "µg/mL"}, {"measurement": "MIC90", "setting": "Haemophilus influenzae [5]", "value": 0.25, "unit": "µg/mL"}, {"measurement": "MIC", "setting": "Staphylococcus aureus [6]", "value": 0.016, "unit": "µg/mL"}, {"measurement": "MIC", "setting": "Staphylococcus aureus [7]", "value": 0.25, "unit": "µg/mL"}, {"measurement": "MIC", "setting": "Staphylococcus aureus [8]", "value": 0.06, "unit": "µg/mL"}, {"measurement": "MIC", "setting": "Staphylococcus aureus [9]", "value": 0.5, "unit": "µg/mL"}, {"measurement": "MIC", "setting": "Staphylococcus aureus [10]", "value": 0.016, "unit": "µg/mL"}, {"measurement": "MIC", "setting": "Staphylococcus aureus [11]", "value": 0.13, "unit": "µg/mL"}, {"measurement": "Ratio", "setting": "Staphylococcus aureus [12]", "value": 8}, {"measurement": "Ratio", "setting": "Staphylococcus aureus [13]", "value": 8}, {"measurement": "Ratio", "setting": "Staphylococcus aureus [14]", "value": 8}, {"measurement": "Ratio", "setting": "Staphylococcus aureus [15]", "value": 16}, {"measurement": "Selectivity ratio", "setting": "[16]", "value": 10000}, {"measurement": "inhibition (INH)", "setting": "[17]", "value": "Not Active"}, {"measurement": "inhibition (INH)", "setting": "Cytochrome P450 2D6", "value": "Not Active"}, {"measurement": "EC50", "setting": "[18]", "value": "> 200", "unit": "µM"}, {"measurement": "MIC", "setting": "Haemophilus influenzae [19]", "value": 0.13, "unit": "µg/mL"}, {"measurement": "clearance", "setting": "[20]", "value": 4, "unit": "mL/min/kg"}, {"measurement": "MIC", "setting": "Moraxella catarrhalis", "value": "< 0.008", "unit": "µg/mL"}, {"measurement": "MIC", "setting": "Escherichia coli", "value": 0.94, "unit": "µg/mL"}, {"measurement": "logD", "setting": "[21]", "value": 1.4}, {"measurement": "Ratio", "setting": "[22]", "value": 2.3}, {"measurement": "fraction unbound", "setting": "[23]", "value": 0.047}, {"measurement": "bioavailability", "setting": "[24]", "value": 100, "unit": "%"}, {"measurement": "fraction unbound", "setting": "[25]", "value": 0.034}, {"measurement": "fraction unbound", "setting": "[26]", "value": 0.062}, {"measurement": "bioavailability", "setting": "[27]", "value": 96, "unit": "%"}, {"measurement": "clearance", "setting": "[28]", "value": 0.64, "unit": "mL/min/kg"}, {"measurement": "clearance", "setting": "[29]", "value": 2.1, "unit": "mL/min/kg"}]}
